Data as given in ChEMBL document CHEMBL5661943, “ASAP - In vitro antiviral effect” (2024).

Key:
[1] = tested on: Zika virus; test: Functional CPE-based assay to measure dose dependent changes in antiviral-drug inhibitory efficacy against Zika virus MR766 in Vero E6 miRFP670 cells (cotreated with P-gp inhibitor, CP100356). Cells are treated with antiviral candidates that are serially diluted. EC50 is reported via analysis of MTS assay as a readout of CPE. The assay has been performed by KU Leuven.; type: organism-based, Chlorocebus sabaeus, Vero C1008; conditions: Zika virus
[2] = tested on: dengue virus type 2; test: Functional assay to measure dose dependent changes in antiviral-drug inhibitory efficacy against Dengue virus type 2 New Guinea C in Vero E6 miRFP670 cells (cotreated with P-gp inhibitor, CP100356). Cells are treated with antiviral candidates that are serially diluted, following infection, cells are fixed. EC50 is reported via analysis of fluorescence intensity using high-content imager. The …; type: organism-based, Chlorocebus sabaeus, Vero C1008; conditions: for EC90: P-gp concentration 500 nM, P-gp inhibitor CP100356

N#Cc1cccc(-c2nc3c(C(=O)Nc4ccc5c(c4)CNC5)cc(Cl)cc3[nH]2)c1
EC50 ([1]; Vero C1008): > 3.12 µM | EC90 ([1]; Vero C1008, Baseline response 0 %, Hill slope 0.859, Maximum measured 7.667 %, Maximum response 100 %, Minimum measured 0.919 %, P-gp concentration 500 nM, R squared 0.501, P-gp inhibitor CP100356): > 3.12 µM | EC50 ([2]; Dengue virus, Vero C1008): > 50 µM | EC90 ([2]; Dengue virus, Vero C1008, Maximum measured 129.968 %, Minimum measured 100.984 %): > 50 µM

N#CCc1cc(NC(=O)c2cc(F)cc3[nH]ncc23)cc2c1CNC2
EC50 ([1]; Vero C1008): 41.5 µM | EC90 ([1]; Vero C1008, Baseline response 0 %, Hill slope 1.989, Maximum measured 59.393 %, Maximum response 100 %, Minimum measured -2.191 %, P-gp concentration 500 nM, R squared 0.98, P-gp inhibitor CP100356): > 50 µM | EC50 ([2]; Dengue virus, Vero C1008): > 50 µM | EC90 ([2]; Dengue virus, Vero C1008, Maximum measured 146.108 %, Minimum measured 103.208 %): > 50 µM

O=C(Nc1cc(Cl)cc(-c2cnn(Cc3ccc(C(=O)O)cc3)c2)c1)OCc1ccccc1
EC50 ([1]; Vero C1008): > 50 µM | EC90 ([1]; Vero C1008, Baseline response 0 %, Hill slope 1.126, Maximum measured 43.56 %, Maximum response 100 %, Minimum measured -3.769 %, P-gp concentration 500 nM, R squared 0.488, P-gp inhibitor CP100356): > 50 µM | EC50 ([2]; Dengue virus, Vero C1008): 25 µM | EC90 ([2]; Dengue virus, Vero C1008, Baseline response 0 %, Hill slope -21.178, Maximum measured 148.823 %, Maximum response 100 %, Minimum measured 10.822 %, R squared 0.564): 27.8 µM

O=C(Nc1cc2c(c(-c3c[nH]c(=O)c(F)c3)c1)CNC2)c1cc(F)cc2[nH]ncc12
EC50 ([1]; Vero C1008): > 50 µM | EC90 ([1]; Vero C1008, Baseline response 0 %, Hill slope 0.515, Maximum measured 9.878 %, Maximum response 100 %, Minimum measured 0.944 %, P-gp concentration 500 nM, R squared 0.362, P-gp inhibitor CP100356): > 50 µM | EC50 ([2]; Dengue virus, Vero C1008): > 25 µM | EC90 ([2]; Dengue virus, Vero C1008, Maximum measured 138.883 %, Minimum measured 79.511 %): > 25 µM

O=C(Nc1ccc2c(c1)CNC2)c1cc(F)cc2[nH]c(-c3ccccc3)nc12
EC50 ([1]; Vero C1008): 2.13 µM | EC90 ([1]; Vero C1008, Baseline response 0 %, Hill slope 1.327, Maximum measured 69.085 %, Maximum response 100 %, Minimum measured 18.26 %, P-gp concentration 500 nM, R squared 0.744, P-gp inhibitor CP100356): > 3.12 µM | EC90 ([2]; Dengue virus, Vero C1008, Maximum measured 101.649 %, Minimum measured 101.649 %): > 0.391 µM | EC90 ([2]; Dengue virus, Vero C1008, Maximum measured 246.46 %, Minimum measured 208.361 %): > 6.25 µM | EC50 ([2]; vero c1008): > 6.25 µM

C[C@H]1C(=O)Nc2ccc(C(=O)Nc3ccc4c(c3)CNC4)cc21
EC50 ([1]; Vero C1008): > 50 µM | EC90 ([1]; Vero C1008, Maximum measured 0.465 %, Minimum measured -1.56 %, P-gp concentration 500 nM, P-gp inhibitor CP100356): > 50 µM | EC50 ([2]; Dengue virus, Vero C1008): > 50 µM | EC90 ([2]; Dengue virus, Vero C1008, Maximum measured 179.475 %, Minimum measured 83.637 %): > 50 µM

O=C(NCc1cccnc1)[C@H](Nc1ccc2c(c1)CNC2)c1cc(Cl)cc2[nH]ncc12
EC50 ([1]; Vero C1008): > 50 µM | EC90 ([1]; Vero C1008, Maximum measured -0.377 %, Minimum measured -17.936 %, P-gp concentration 500 nM, P-gp inhibitor CP100356): > 50 µM | EC50 ([2]; Dengue virus, Vero C1008): > 50 µM | EC90 ([2]; Dengue virus, Vero C1008, Maximum measured 132.553 %, Minimum measured 89.084 %): > 50 µM

CC1=C(c2cc(NC(=O)c3cc(Cl)cc4[nH]ncc34)cc3c2CNC3)CCC1=O
EC50 ([1]; Vero C1008): > 50 µM | EC90 ([1]; Vero C1008, Baseline response 0 %, Hill slope 0.456, Maximum measured 3.948 %, Maximum response 100 %, Minimum measured -0.924 %, P-gp concentration 500 nM, R squared 0.076, P-gp inhibitor CP100356): > 50 µM | EC50 ([2]; Dengue virus, Vero C1008): > 50 µM | EC90 ([2]; Dengue virus, Vero C1008, Maximum measured 165.308 %, Minimum measured 53.221 %): > 50 µM

CCCNC(=O)[C@H](Nc1ccc2c(c1)CNC2)c1cc(Cl)cc2[nH]ncc12
EC50 ([1]; Vero C1008): 6.6 µM | EC90 ([1]; Vero C1008, Baseline response 0 %, EC90 CI (lower) 8.551 uM, EC90 CI (upper) 22.021 uM, Hill slope 3.004, Maximum measured 121.473 %, Maximum response 100 %, Minimum measured -0.697 %, P-gp concentration 500 nM, R squared 0.949, P-gp inhibitor CP100356): 13.7 µM | EC50 ([2]; Dengue virus, Vero C1008): > 50 µM | EC90 ([2]; Dengue virus, Vero C1008, Maximum measured 131.319 %, Minimum measured 89.09 %): > 50 µM

CCCn1cc2c(C(=O)Nc3ccc4c(c3)CNC4)cc(Cl)cc2n1
EC50 ([1]; Vero C1008): 3.04 µM | EC90 ([1]; Vero C1008): 3.55 µM | EC50 ([2]; Dengue virus, Vero C1008): > 3.12 µM | EC90 ([2]; Dengue virus, Vero C1008, Baseline response 0 %, Hill slope 1.203, Maximum measured 92.059 %, Maximum response 100 %, Minimum measured 55.102 %, R squared 0.785): > 3.12 µM
